Data as given in PubChem BioAssay (NCI).
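Cells were grown in 96-well plates and exposed to each compound for 48 hours at five concentrations; endpoints were interpolated linearly between bracketing concentrations, or set to the highest concentration if not reached. At the TGI there is no net growth.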

How the values were obtained:
Assay in all cases: NCI-60 cell line screen, 48 h
[1] = tested on: A498 renal
[2] = tested on: A549 NSCLC
[3] = tested on: ACHN renal
[4] = tested on: CCRF-CEM leukemia
[5] = tested on: DMS 114 small cell lung
[6] = tested on: DMS 273 small cell lung
[7] = tested on: HCT-116 colon
[8] = tested on: HCT-15 colon
[9] = tested on: HL-60(TB) leukemia
[10] = tested on: HOP-18 NSCLC
[11] = tested on: HT29 colon
[12] = tested on: IGROV1 ovarian
[13] = tested on: K-562 leukemia
[14] = tested on: KM12 colon
[15] = tested on: LOX IMVI melanoma
[16] = tested on: LXFL 529 NSCLC
[17] = tested on: M14 melanoma
[18] = tested on: M19-MEL melanoma
[19] = tested on: MALME-3M melanoma
[20] = tested on: MOLT-4 leukemia
[21] = tested on: NCI-H226 lung
[22] = tested on: NCI-H23 lung
[23] = tested on: NCI-H460 lung
[24] = tested on: OVCAR-3 ovarian
[25] = tested on: OVCAR-4 ovarian
[26] = tested on: OVCAR-8 ovarian
[27] = tested on: RXF 393 renal
[28] = tested on: SF-268 CNS
[29] = tested on: SF-295 CNS
[30] = tested on: SF-539 CNS
[31] = tested on: SK-MEL-2 melanoma
[32] = tested on: SK-MEL-28 melanoma
[33] = tested on: SK-MEL-5 melanoma
[34] = tested on: SN12C renal
[35] = tested on: SNB-75 CNS
[36] = tested on: SNB-78 CNS
[37] = tested on: SW-620 colon
[38] = tested on: TK-10 renal
[39] = tested on: UACC-257 melanoma
[40] = tested on: UACC-62 melanoma
[41] = tested on: 786-0 renal
[42] = tested on: DLD-1 colon
[43] = tested on: EKVX NSCLC
[44] = tested on: HCC-2998 colon
[45] = tested on: HOP-62 NSCLC
[46] = tested on: KM20L2 colon
[47] = tested on: RPMI-8226 leukemia
[48] = tested on: SNB-19 CNS
[49] = tested on: SR leukemia
[50] = tested on: U251 CNS
[51] = tested on: XF 498 CNS
[52] = tested on: COLO 205 colon
[53] = tested on: NCI-H522 lung
[54] = tested on: SK-OV-3 ovarian
[55] = tested on: UO-31 renal

## CC1(C)OC(COP2OCCO2)[C@H](COP2OCCO2)O1 (stereo not given in full)
[1]
  TGI: > 100 µM
[2]
  TGI: > 100 µM
[3]
  TGI: > 100 µM
[4]
  TGI: > 100 µM
[5]
  TGI: > 100 µM
[6]
  TGI: > 100 µM
[7]
  TGI: > 100 µM
[8]
  TGI: > 100 µM
[9]
  TGI: > 100 µM
[10]
  TGI: > 100 µM
[11]
  TGI: > 100 µM
[12]
  TGI: > 100 µM
[13]
  TGI: > 100 µM
[14]
  TGI: > 100 µM
[15]
  TGI: > 100 µM
[16]
  TGI: > 100 µM
[17]
  TGI: > 100 µM
[18]
  TGI: > 100 µM
[19]
  TGI: > 100 µM
[20]
  TGI: > 100 µM
[21]
  TGI: > 100 µM
[22]
  TGI: > 100 µM
[23]
  TGI: > 100 µM
[24]
  TGI: > 100 µM
[25]
  TGI: > 100 µM
[26]
  TGI: > 100 µM
[27]
  TGI: > 100 µM
[28]
  TGI: > 100 µM
[29]
  TGI: > 100 µM
[30]
  TGI: > 100 µM
[31]
  TGI: > 100 µM
[32]
  TGI: > 100 µM
[33]
  TGI: > 100 µM
[34]
  TGI: > 100 µM
[35]
  TGI: > 100 µM
[36]
  TGI: > 100 µM
[37]
  TGI: > 100 µM
[38]
  TGI: > 100 µM
[39]
  TGI: > 100 µM
[40]
  TGI: > 100 µM

## COc1cc2c(cc1O)CCN[C@@]21CS[C@H]2c3c(OC(C)=O)c(C)c4c(c3C(COC1=O)N1C2C2NC(Cc3cc(C)c(OC)c(O)c32)[C@@H]1C#N)OCO4 (stereo not given in full)
[41]
  TGI: 0.162 µM
[3]
  TGI: 0.721 µM
[4]
  TGI: 0.0525 µM
[42]
  TGI: 0.271 µM
[5]
  TGI: < 0.01 µM
[43]
  TGI: 0.125 µM
[44]
  TGI: < 0.01 µM
[7]
  TGI: 1.14 µM
[9]
  TGI: 0.0209 µM
[45]
  TGI: 0.0107 µM
[11]
  TGI: 0.16 µM
[46]
  TGI: < 0.01 µM
[16]
  TGI: 0.111 µM
[17]
  TGI: < 0.01 µM
[18]
  TGI: < 0.01 µM
[19]
  TGI: < 0.01 µM
[20]
  TGI: < 0.01 µM
[21]
  TGI: < 0.01 µM
[22]
  TGI: < 0.01 µM
[25]
  TGI: < 0.01 µM
[47]
  TGI: 0.017 µM
[27]
  TGI: < 0.01 µM
[28]
  TGI: 0.104 µM
[30]
  TGI: < 0.01 µM
[31]
  TGI: < 0.01 µM
[32]
  TGI: 0.0268 µM
[33]
  TGI: < 0.01 µM
[34]
  TGI: 0.115 µM
[48]
  TGI: 1.87 µM
[35]
  TGI: < 0.01 µM
[49]
  TGI: > 100 µM
[37]
  TGI: 1.06 µM
[38]
  TGI: 61 µM
[50]
  TGI: 0.444 µM
[40]
  TGI: < 0.01 µM
[51]
  TGI: < 0.01 µM

## O=C(O)OC12CCCCCC1C(=O)C1CCCCC12 (stereo not given)
[41]
  TGI: > 100 µM
[2]
  TGI: > 100 µM
[3]
  TGI: > 100 µM
[4]
  TGI: > 100 µM
[52]
  TGI: > 100 µM
[5]
  TGI: > 100 µM
[6]
  TGI: > 100 µM
[43]
  TGI: > 100 µM
[7]
  TGI: > 100 µM
[8]
  TGI: > 100 µM
[9]
  TGI: > 100 µM
[10]
  TGI: > 100 µM
[45]
  TGI: > 100 µM
[11]
  TGI: > 100 µM
[13]
  TGI: > 100 µM
[14]
  TGI: > 100 µM
[46]
  TGI: > 100 µM
[15]
  TGI: > 100 µM
[16]
  TGI: > 100 µM
[17]
  TGI: > 100 µM
[18]
  TGI: > 100 µM
[19]
  TGI: > 100 µM
[20]
  TGI: > 100 µM
[21]
  TGI: > 100 µM
[22]
  TGI: > 100 µM
[23]
  TGI: > 100 µM
[53]
  TGI: > 100 µM
[25]
  TGI: > 100 µM
[26]
  TGI: > 100 µM
[47]
  TGI: > 100 µM
[27]
  TGI: > 100 µM
[28]
  TGI: > 100 µM
[29]
  TGI: > 100 µM
[31]
  TGI: > 100 µM
[32]
  TGI: > 100 µM
[33]
  TGI: > 100 µM
[54]
  TGI: > 100 µM
[34]
  TGI: > 100 µM
[48]
  TGI: > 100 µM
[35]
  TGI: > 100 µM
[36]
  TGI: > 100 µM
[49]
  TGI: > 100 µM
[37]
  TGI: > 100 µM
[38]
  TGI: > 100 µM
[50]
  TGI: > 100 µM
[39]
  TGI: > 100 µM
[40]
  TGI: > 100 µM
[55]
  TGI: > 100 µM
[51]
  TGI: > 100 µM
